This passage reports IC50 results from US20250268894A1, “MACROCYCLE COMPOUNDS FOR THE TREATMENT OF CANCER” (Hoffmann-La Roche Inc., priority 2022, published 2025).

Assay [1] deals with phosphorylation of ERK, KRAS G12V in SW620 cells. The experiment in a line: pERK inhibition assay, KRAS G12V in SW620. Conditions: Homo sapiens, SW-620, SW620, 4 hours. It is filed as cell-based, human. The method, then: (§1) This assay is to measure the ability of test compounds in inhibiting the phosphorylation of ERK, the downstream signaling of KRAS G12C in NCI-H358 cells, KRAS G12D in AGS cells, and KRAS G12V in SW620. NCI-H358 (ATCC-CRL5807) cells, AGS (ATCC-CRL-1739) cells, SW620 (ATCC-CCL-227) cells were all grown and maintained using RPMI-1640 medium (Thermo Fisher Scientific) with 10% fetal bovine serum and 1% penicillin/streptomycin. On the day prior to compound addition, cells were plated in tissue culture-treated 96 well plates (Corning-3699) at a density of 30,000 cell/well, 20,000 cell/well, 30,000 cell/well for NCI-H358, AGS and SW620 respectively, and allowed for attachment overnight. Diluted compounds were then added in a final concentration of 0.5% DMSO. After 4 hours of incubation, the medium was removed, 100 μL of 4% formaldehyde was added, and the assay plates were incubated at room temperature for 20 minutes. The plates were then washed once with phosphate buffered saline (PBS), and permeabilized with 100 μL of chilled methanol for 10 minutes. Non-specific antibody binding to the plates was blocked using 50 μL 1X BSA blocking buffer (Thermo-37520, 10-fold dilution by Phosphate-Buffered Saline Tween (PBST) for at least 1 hour at room temperature.
(§2) The amount of phosphor-ERK was determined using an antibody specific for phosphorylated form of ERK. Primary antibody (PERK, CST-4370, Cell Signaling Technology) was diluted 1:300 in blocking buffer, with 50 μL aliquoted to each well, and incubated overnight at 4° C. Cells was washed five times for 5 minutes with PBST. Secondary antibody (HRP-linked anti-rabbit IgG, CST-7074, Cell Signaling Technology) was diluted 1:1000 in blocking buffer, and 50 μL was added to each well and incubated 1-2 hrs at room temperature. Cells was washed […] for 5 minutes with PBST, 100 μL TMB ELISA substrate (abcam-ab171523) were added and gently shake for 20 minutes. 50 μL stop solution (abcam-ab171529) were added, and then read the signal (OD450) by EnVision.
(§3) IC50 was determined by fitting a 4-parameter sigmoidal concentration response model.

The next assay addresses KRAS G12V-BRAF complex (Homo sapiens (Human), UniProt P01116+P62937, G12V). Put plainly: KRAS-BRAF with CYPA (500 nM) interaction assay (TR-FRET), G12V. The assay is classed as biochemical. The protocol: (§4) Kras-BRAF with CYPA (500 nM) Interaction Assay In this example, TR-FRET was also used to measure the compound or compound-CYPA dependent disruption of the KRAS G12C-BRAF complex. This protocol was also used to measure disruption of KRAS G12D or KRAS G12V binding to BRAF by a compound of the invention, respectively. […] Compound was present in plate wells as a 16-point 3-fold dilution series starting at a final concentration of 10 μM and incubated for 3 hours. […] TR-FRET signal was read on a […] microplate reader (Ex320 nm, Em 665/615 nm). Compounds that facilitate disruption of the KRAS-BRAF complex were identified as those eliciting a decrease in the TR-FRET ratio relative to DMSO control wells.
A general note: TR-FRET usually uses a lanthanide donor and a delayed reading to cut background.

In a further assay the target is KRAS G12C-BRAF complex (Homo sapiens (Human), UniProt P01116+P62937, G12C). Put plainly: KRAS-BRAF with CYPA (500 nM) interaction assay (TR-FRET), G12C. It is filed as biochemical. The method, then:
as §4

For assay [2], the system named is phosphorylation of ERK, KRAS G12D in AGS cells. Put plainly: pERK inhibition assay, KRAS G12D in AGS cells. It is filed as cell-based, human. Conditions: Homo sapiens, 4 hours. The method, then:
as §1, §2, §3

Another assay relates to SW620 cells (KRAS G12V). Put plainly: Cell viability assay (Cell Counting Kit-8), KRAS G12V. It is filed as cell-based. The settings on record: Homo sapiens, SW-620, SW620, 72 hrs. The protocol:
(§5) The purpose of this cellular assay was to determine the effects of test compounds on the proliferation of human cancer cell lines NCI-H358 (ATCC-CRL5807) cells, AGS (ATCC-CRL-1739) cells, SW620 (ATCC-CCL-227) over a 3-day treatment period by quantifying the amount of NADPH present at endpoint using Cell Counting Kit-8.
(§6) Cells were seeded at 5,000 cells/well (NCI-H358), 2,000 cells/well (AGS)2,000 cells/well (SW620) in 96-well assay plates (Corning-3699) and incubated overnight. On the day of the assay, diluted compounds were then added in a final concentration of 0.5% DMSO. After 72 hrs incubation, a tenth of the volume of cell counting kit 8 (Dnjindo-CK04) was added into each well. Read the signal (OD450 minus OD650) using EnVision after 2 hrs incubation. IC50 was determined by fitting a 4-parameter sigmoidal concentration response model.
Background: Tetrazolium assays rely on reduction of a dye to a coloured formazan, in cell work by metabolically active cells.

For the next assay, the system named is AGS cells (KRAS G12D). The experiment in a line: Cell viability assay (Cell Counting Kit-8), KRAS G12D. Conditions: Homo sapiens, 72 hrs. It is filed as cell-based. The method, then: as §5, §6
Assay [3] has as its system NCI-H358 cells (KRAS G12C). Put plainly: Cell viability assay (Cell Counting Kit-8), KRAS G12C. Conditions: Homo sapiens, NCI-H358, 72 hrs. It is filed as cell-based. The method, then:
as §5, §6

The target in the next assay is KRAS G12D-BRAF complex (Homo sapiens (Human), UniProt P01116+P62937, G12D). The experiment in a line: KRAS-BRAF with CYPA (500 nM) interaction assay (TR-FRET), G12D. It is filed as biochemical. The protocol:
as §4

In assay [4] the test system is phosphorylation of ERK, KRAS G12C in NCI-H358 cells. The experiment in a line: pERK inhibition assay, KRAS G12C in NCI-H358 cells. It is filed as cell-based, human. The settings on record: Homo sapiens, NCI-H358, 4 hours. The protocol: as §1, §2, §3

Chain of KRAS G12V-BRAF complex (P01116-2 other isoform, or with tags, fused parts or gaps G12V): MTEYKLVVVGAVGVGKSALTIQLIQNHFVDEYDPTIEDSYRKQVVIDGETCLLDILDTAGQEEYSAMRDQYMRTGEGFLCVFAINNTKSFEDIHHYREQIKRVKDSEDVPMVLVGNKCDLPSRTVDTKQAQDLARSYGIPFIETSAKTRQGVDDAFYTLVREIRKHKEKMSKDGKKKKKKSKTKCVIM
Chain of KRAS G12V-BRAF complex (P62937 whole entry): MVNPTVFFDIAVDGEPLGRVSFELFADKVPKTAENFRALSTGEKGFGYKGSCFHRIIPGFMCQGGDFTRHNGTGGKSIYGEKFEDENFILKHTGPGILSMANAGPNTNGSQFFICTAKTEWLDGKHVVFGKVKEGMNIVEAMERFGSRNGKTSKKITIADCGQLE
Chain of KRAS G12C-BRAF complex (P01116-2 other isoform, or with tags, fused parts or gaps G12C): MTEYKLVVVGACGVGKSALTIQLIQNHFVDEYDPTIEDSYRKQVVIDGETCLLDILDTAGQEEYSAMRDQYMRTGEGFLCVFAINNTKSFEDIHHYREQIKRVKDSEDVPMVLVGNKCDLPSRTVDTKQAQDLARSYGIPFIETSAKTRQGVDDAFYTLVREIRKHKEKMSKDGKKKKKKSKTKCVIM
Chain of KRAS G12C-BRAF complex (P62937 whole entry): as the sequence (P62937 whole entry) above
Chain of KRAS G12D-BRAF complex (P01116-2 other isoform, or with tags, fused parts or gaps G12D): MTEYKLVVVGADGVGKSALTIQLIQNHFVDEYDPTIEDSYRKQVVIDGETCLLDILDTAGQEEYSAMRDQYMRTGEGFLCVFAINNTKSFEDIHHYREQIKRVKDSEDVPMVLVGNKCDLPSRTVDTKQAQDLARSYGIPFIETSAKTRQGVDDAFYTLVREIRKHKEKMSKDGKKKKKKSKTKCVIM
Chain of KRAS G12D-BRAF complex (P62937 whole entry): as the sequence (P62937 whole entry) above

As a reminder, the IC50 is the concentration at which inhibition is half-maximal. Read a low IC50 as greater potency. For `CO[C@@H](C)c1ncc(N2CCN(CC(F)(F)F)CC2)cc1-c1c2c3cc(c(F)cc3n1CC(F)(F)F)-c1csc(n1)C[C@H](NC(=O)[C@H](C(C)C)N(C)C(=O)N1CC(N(C)C)C1)C(=O)N1CCC[C@H](N1)C(=O)OCC(C)(C)C2` (atropisomer, axis not shown; (M)) [Example 12, 3-(dimethylamino)-N-[(1S)-1-[[(7S,13S)-24-fluoro-(20M)-20-[2-[(1S)-1-methoxyethyl]-5-[4-(2,2,2-trifluoroethyl)piperazin-1-yl]-3-pyridyl]-17,17-dimethyl-8,14-dioxo-21-(2,2,2-trifluoroethyl)-15-oxa-4-thia-9,21,27,28-tetrazapentacyclo[17.5.2.1^2,5.1^9,13.0^22,26]octacosa-1 (25),2,5 (28),19,22 (26),23-hexaen-7-yl]carbamoyl]-2-methyl-propyl]-N-methyl-azetidine-1-carboxamide], the IC50 in [1] was determined as 4 nM; against KRAS G12V-BRAF complex it was 85 nM; at KRAS G12C-BRAF complex, 29 nM; in assay [2], 15 nM; in the assay on SW620 cells (KRAS G12V), 7 nM; with AGS cells (KRAS G12D), 38 nM. The IC50 in [3] came out at 9 nM; against KRAS G12D-BRAF complex, 140 nM; in [4], 6 nM.

With `CCn1c(-c2cc(N3CCOCC3)cnc2[C@H](C)OC)c2c3cc(c(F)cc31)-c1csc(n1)C[C@H](NC(=O)[C@H](C(C)C)N(C)C(=O)NCC(F)(F)F)C(=O)N1CCC[C@H](N1)C(=O)OCC(C)(C)C2` (atropisomer, axis not shown; (M)) [Example 13, (2S)-N-[(7S,13S)-21-ethyl-24-fluoro-(20M)-20-[2-[(1S)-1-methoxyethyl]-5-morpholino-3-pyridyl]-17,17-dimethyl-8,14-dioxo-15-oxa-4-thia-9,21,27,28-tetrazapentacyclo[17.5.2.1^2,5.1^9,13.0^22,26]octacosa-1 (25),2,5 (28),19,22 (26),23-hexaen-7-yl]-3-methyl-2-[methyl(2,2,2-trifluoroethylcarbamoyl)amino]butanamide], the IC50 in [1] is 8 nM; against KRAS G12V-BRAF complex, over 10000 nM; on KRAS G12C-BRAF complex, over 10000 nM; in [2], 46 nM; in the assay with SW620 cells (KRAS G12V) it was 29 nM; with AGS cells (KRAS G12D), 447 nM. Besides, the IC50 is 26 nM in assay [3], over 10000 nM on KRAS G12D-BRAF complex and 19 nM in assay [4].

For `CCn1c(-c2cc(N3CCOCC3)cnc2[C@H](C)OC)c2c3cc(c(F)cc31)-c1csc(n1)C[C@H](NC(=O)[C@H](C(C)C)N(C)C(=O)N1CC(C(F)(F)F)C1)C(=O)N1CCC[C@H](N1)C(=O)OCC(C)(C)C2` (atropisomer, axis not shown; (M)) [Example 14, N-[(1S)-1-[[(7S,13S)-21-ethyl-24-fluoro-(20M)-20-[2-[(1S)-1-methoxyethyl]-5-morpholino-3-pyridyl]-17,17-dimethyl-8,14-dioxo-15-oxa-4-thia-9,21,27,28-tetrazapentacyclo[17.5.2.1^2,5.1^9,13.0^22,26]octacosa-1 (25),2,5 (28),19,22 (26),23-hexaen-7-yl]carbamoyl]-2-methyl-propyl]-N-methyl-3-(trifluoromethyl) azetidine-1-carboxamide], the IC50 in [1] is 12 nM; against KRAS G12V-BRAF complex, over 10000 nM; at KRAS G12C-BRAF complex it was over 10000 nM; in assay [2], 32 nM; with SW620 cells (KRAS G12V), 73 nM; with AGS cells (KRAS G12D) it was over 10000 nM. Moreover, the IC50 in assay [3] was 100 nM; against KRAS G12D-BRAF complex, over 10000 nM; in assay [4], 28 nM.

On to `CO[C@@H](C)c1ncc(N2CCN(CC(F)(F)F)CC2)cc1-c1c2c3c(F)c(ccc3n1CC(F)(F)F)-c1csc(n1)C[C@H](NC(=O)[C@H](C(C)C)N(C)C(=O)N1CCOCC1)C(=O)N1CCC[C@H](N1)C(=O)OCC(C)(C)C2` (atropisomer, axis not shown; (M)) [Example 17, N-[(1S)-1-[[(7S,13S)-25-fluoro-(20M)-20-[2-[(1S)-1-methoxyethyl]-5-[4-(2,2,2-trifluoroethyl)piperazin-1-yl]-3-pyridyl]-17,17-dimethyl-8,14-dioxo-21-(2,2,2-trifluoroethyl)-15-oxa-4-thia-9,21,27,28-tetrazapentacyclo[17.5.2.1^2,5.1^9,13.0^22,26]octacosa-1 (25),2,5 (28),19,22 (26),23-hexaen-7-yl]carbamoyl]-2-methyl-propyl]-N-methyl-morpholine-4-carboxamide], for which the IC50 in [1] amounted to 4 nM; against KRAS G12V-BRAF complex, 4 nM; against KRAS G12C-BRAF complex it was 2 nM; in [2], 4 nM; in the assay on SW620 cells (KRAS G12V), 6 nM; with AGS cells (KRAS G12D) it was 46 nM. The half-inhibitory concentration (IC50) in assay [3] was 4 nM; on KRAS G12D-BRAF complex, 7 nM; in [4], 8 nM.
